# Data from US20050026911A1, “Benzotriazapinone salts and methods for using same” (priority 2003, published 2005).
# Target: T1, gastrin (CCK2) receptors (Rattus norvegicus, UniProt P30553)
# T1 construct: The stomach was excised and flushed with ca. 1 ml of unbuffered physiological saline solution; from tissue; host or cells: isolated whole stomach of immature rats (ca. 21 days old)
# T1 sequence (P30553 1-452): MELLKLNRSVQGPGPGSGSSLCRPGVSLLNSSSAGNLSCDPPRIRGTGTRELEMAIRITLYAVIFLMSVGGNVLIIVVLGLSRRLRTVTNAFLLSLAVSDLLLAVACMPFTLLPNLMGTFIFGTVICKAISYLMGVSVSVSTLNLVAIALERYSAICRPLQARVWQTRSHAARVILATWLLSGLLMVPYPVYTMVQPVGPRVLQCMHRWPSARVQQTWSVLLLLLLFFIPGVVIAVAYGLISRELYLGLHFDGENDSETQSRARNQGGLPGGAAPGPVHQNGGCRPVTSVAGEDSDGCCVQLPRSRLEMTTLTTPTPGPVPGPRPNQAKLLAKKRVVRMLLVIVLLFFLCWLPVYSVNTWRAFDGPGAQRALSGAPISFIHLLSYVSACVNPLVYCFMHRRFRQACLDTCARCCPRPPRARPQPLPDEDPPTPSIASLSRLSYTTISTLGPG
# Experiment: gastrin (CCK2) antagonist activity in an immature rat stomach assay
# Conditions: pentagastrin dose-response curves, acid secretion, read-out: pKB rat stomach (converted)
# Outline: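 Pentagastrin dose-response curves were run cumulatively 60 min after drug went into the serosal bath, itself after 120 min stabilisation. Preparation: perfused stomach from rats ca. 21 days old (33-50 g), with unbuffered saline under 100% O2 at 1 ml min^−1 and perfusate pH monitored.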
row,Compound,Kb [nM]
1,"Cc1cccc2c1C(C1CCCCC1)=NN(CC(=O)Nc1cccc(C(=O)O)c1)C(=O)N2CC(=O)C(C)(C)C [Example 114, 3-{2-[5-Cyclohexyl-1-(3,3-dimethyl-2-oxo-butyl)-6-methyl-2-oxo-1,2-dihydro-3H-1,3,4-benzotriazepin-3-yl]-acetylamino}-benzoic acid]",35.5
2,"CC1CCC(C2=NN(CC(=O)Nc3cccc(CC(=O)O)c3)C(=O)N(CC(=O)C(C)(C)C)c3ccccc32)CC1 (stereo not drawn) [Example 103, (3-{2-[1-(3,3-Dimethyl-2-oxo-butyl)-5-(4-methyl-cyclohexyl)-2-oxo-1,2-dihydro-3H-1,3,4-benzotriazepin-3-yl]-acetylamino}-phenyl)-acetic acid]",3.98
3,"Cc1nc(-c2cccc(NC(=O)CN3N=C(C4CCCCC4)c4ccccc4N(CC(=O)C4CCCC4)C3=O)c2)cs1 [Example 136, 2-[5-Cyclohexyl-1-(2-cyclopentyl-2-oxo-ethyl)-2-oxo-1,2-dihydro-3H-1,3,4-benzotriazepin-3-yl]-N-[3-(2-methyl-thiazol-4-yl)-phenyl]-acetamide]",6.03
4,"CC(C)(C)C(=O)CN1C(=O)N(CC(=O)Nc2cccc(N3CCCC3C(=O)O)c2)N=C(C2CCCCC2)c2ccccc21 (stereo in doubt) [Example 76, (R)-]-(3-{2-[5-Cyclohexyl-1-(3,3-dimethyl-2-oxobutyl)-2-oxo-1,2-dihydro-3H-1,3,4-benzotriazepin-3-yl]-acetylamino}-phenyl)-pyrrolidine-2-carboxylic acid]",110
5,"CC(C)(C)C(=O)CN1C(=O)N(CC(=O)Nc2cccc(C(=O)O)c2)N=C(C23CC4CC(CC(C4)C2)C3)c2ccccc21 [Example 54, 3-{2-[5-Adamantan-1-yl-1-(3,3-dimethyl-2-oxo-butyl)2-oxo-1,2-dihydro-3H-1,3,4-benzotriazepin-3-yl]-acetylamino}-benzoic acid]",17
6,"CNc1cccc(NC(=O)CN2N=C(c3ccccc3)c3ccccc3N(CC(=O)C(C)(C)C)C2=O)c1 [Example 4, 2-[1-(3,3-Dimethyl-2-oxo-butyl)-2-oxo-5-phenyl-1,2-dihydro-3H-1,3,4-benzotriazepin-3-yl]-N-(3-methylamino-phenyl)-acetamide]",132
7,"CNc1cccc(NC(=O)CN2N=C(c3ccccn3)c3ccccc3N(CC(=O)C(C)(C)C)C2=O)c1 [Example 5, 2-[1-(3,3-Dimethyl-2-oxo-butyl)-2-oxo-5-pyridin-2-yl-1,2-dihydro-3H-1,3,4-benzotriazepin-3-yl]-N-(3-methylamino-phenyl)-acetamide]",240
8,"O=C(CN1N=C(C2CCCCC2)c2ccccc2N(CC(=O)C2CCCC2)C1=O)Nc1cccc(-c2nc(C(=O)O)co2)c1 [Example 148, 2-(3-{2-[5-Cyclohexyl-1-(2-cyclopentyl-2-oxo-ethyl)-2-oxo-1,2-dihydro-3H-1,3,4-benzotriazepin-3-yl]-acetylamino}-phenyl)-oxazole-4-carboxylic acid]",3.89
9,"CC(C)(C)C(=O)CN1C(=O)N(CC(=O)Nc2cccc(Cc3nnn[nH]3)c2)N=C(C2CCCCC2)c2ccccc21 [Example 67, 2-[5-Cyclohexyl-1-(3,3-dimethyl-2-oxo-butyl)-2-oxo-1,2-dihydro-3H-1,3,4-benzotriazepin-3-yl]-N-[3-(1H-tetrazol-5-ylmethyl)-phenyl]-acetamide]",77.6
10,"CC(C)(C)C(=O)CN1C(=O)N(CC(=O)Nc2cccc(-c3csc(C(=O)O)n3)c2)N=C(C2CCCCC2)c2ccccc21 [Example 108, 4-(3-{2-[5-Cyclohexyl-1-(3,3-dimethyl-2-oxo-butyl)-2-oxo-1,2-dihydro-3H-1,3,4-benzotriazepin-3-yl]-acetylamino}-phenyl)-thiazole-2-carboxylic acid]",37.2
11,"CNc1cccc(NC(=O)CN2N=C(C3CCCC3)c3ccccc3N(CC(=O)C(C)(C)C)C2=O)c1 [Example 11, 2-[5-Cyclopentyl-1-(3,3-dimethyl-2-oxo-butyl)-2-oxo-1,2-dihydro-3H-1,3,4-benzotriazepin-3-yl]-N-(3-methylaminophenyl)-acetamide]",44.7
12,"CC(C)(C)C(=O)CN1C(=O)N(CC(=O)Nc2cccc(-c3ccccc3C(=O)O)c2)N=C(C2CCCCC2)c2ccccc21 [Example 154, 3′-{2-[5-Cyclohexyl-1-(3,3-dimethyl-2-oxo-butyl)-2-oxo-1,2-dihydro-3H-1,3,4-benzotriazepin-3-yl]-acetylamino}-biphenyl-2-carboxylic acid]",3.24
13,"CC(C)(C)C(=O)CN1C(=O)N(CC(=O)Nc2cccc(O)c2)N=C(C2CCCCC2)c2ccccc21 [Example 84, 2-[5-Cyclohexyl-1-(3,3-dimethyl-2-oxo-butyl)-2-oxo-1,2-dihydro-3H-1,3,4-benzotriazepin-3-yl]-N-(3-hydroxy-phenyl)-acetamide]",27.5
14,O=C(O)Cc1cccc(NC(=O)CN2N=C(c3ccccn3)c3ccccc3N(CC(=O)C3CCCC3)C2=O)c1 [Example 81],72.4
15,CNc1cccc(NC(=O)CN2N=C(c3ccccn3)c3ccccc3N(CC(=O)N3CCCC3)C2=O)c1 [Example 6],1050
16,"Cc1cccc(NNC(=O)CN2N=C(C3CCCCC3)c3ccccc3N(CC(=O)C(C)(C)C)C2=O)c1 [Example 46, [5-Cyclohexyl-1-(3,3-dimethyl-2-oxo-butyl)-2-oxo-1,2-dihydro-3H-1,3,4-benzotriazepin-3-yl]-acetic acid N′-m-tolyl-hydrazide]",174

# Now from value to compound:
row,Kb [nM],Compound
1,61.7,"CC(C)(C)C(=O)CN1C(=O)N(CC(=O)Nc2cccc(CC(=O)O)c2)N=C(C2CCCCC2)c2ccccc21 [Example 29, (3-{2-[5-Cyclohexyl-1-(3,3-dimethyl-2-oxo-butyl)-2-oxo-1,2-dihydro-3H-1,3,4-benzotriazepin-3-yl]-acetylamino}-phenyl)-acetic acid]"
2,27.5,"CC(C)(C)C(=O)CN1C(=O)N(CC(=O)Nc2ccc3c(ccn3CC(=O)O)c2)N=C(C2CCCCC2)c2ccccc21 [Example 117, (5-{2-[5-Cyclohexyl-1-(3,3-dimethyl-2-oxo-butyl)-2-oxo-1,2-dihydro-3H-1,3,4-benzotriazepin-3-yl]-acetylamino}-indol-1-yl)-acetic acid]"
3,155,"CC(C)(C)C(=O)CN1C(=O)N(CC(=O)Nc2ccc3ncn(CC(=O)O)c3c2)N=C(C2CCCCC2)c2ccccc21 [Example 94, (6-{2-[5-Cyclohexyl-1-(3,3-dimethyl-2-oxo-butyl)-2-oxo-1,2-dihydro-3H-1,3,4-benzotriazepin-3-yl]-acetylamino)-benzimidazol-1-yl)-acetic acid]"
4,4.47,"CC(C)(C)C(=O)CN1C(=O)N(CC(=O)Nc2cccc(CCC(=O)O)c2)N=C(C2CCCCC2)c2ccccc21 [Example 61, 3-(3-{2-[5-Cyclohexyl-1-(3,3-dimethyl-2-oxo-butyl)-2-oxo-1,2-dihydro-3H-1,3,4-benzotriazepin-3-yl]-acetylamino}-phenyl)-propionic acid]"
5,44.7,"CC(C)(C)C(=O)CN1C(=O)N(CC(=O)Nc2cccc3c2cnn3CC(=O)O)N=C(C2CCCCC2)c2ccccc21 [Example 130, (4-{2-[5-Cyclohexyl-1-(3,3-dimethyl-2-oxo-butyl)-2-oxo-1,2-dihydro-3H-1,3,4-benzotriazepin-3-yl]-acetylamino}-indazol-1-yl)-acetic acid]"
6,0.851,"CC(C)(C)C(=O)CN1C(=O)N(CC(=O)Nc2ccc3ccn(CC(=O)O)c3c2)N=C(C2CCCCC2)c2ccccc21 [Example 70, (6-{2-[5-Cyclohexyl-1-(3,3-dimethyl-2-oxo-butyl)-2-oxo-1,2-dihydro-3H-1,3,4-benzotriazepin-3-yl]-acetylamino}-indol-1-yl)-acetic acid]"
7,40.7,"Cc1cc(NC(=O)CN2N=C(C3CCCCC3)c3ccccc3N(CC(=O)C(C)(C)C)C2=O)cc(C(=O)O)c1 [Example 91, 3-{2-[5-Cyclohexyl-1-(3,3-dimethyl-2-oxo-butyl)-2-oxo-1,2-dihydro-3H-1,3,4-benzotriazepin-3-yl]-acetylamino}-5-methyl-benzoic acid]"
8,0.661,"CC(C)(C)C(=O)CN1C(=O)N(CC(=O)Nc2cccc(C(=O)O)c2)N=C(C2CCCCC2)c2ccccc21 [Example 2, 3-{2-[5-Cyclohexyl-1-(3,3-dimethyl-2-oxo-butyl)-2-oxo-1,2-dihydro-3H-1,3,4-benzotriazepin-3-yl]-acetylamino}-benzoic acid]"
9,75.9,"CC(C)(C)C(=O)CN1C(=O)N(CC(=O)Nc2cccc(C(=O)O)c2)N=C(C2CCCC2)c2ccccc21 [Example 9, 3-{2-[5-Cyclopentyl-1-(3,3-dimethyl-2-oxo-butyl)-2-oxo-1,2-dihydro-3H-1,3,4-benzotriazepin-3-yl]-acetylamino}-benzoic acid]"
10,14.1,"CC(C)(C)C(=O)CN1C(=O)N(CC(=O)Nc2ccc3cnn(CC(=O)O)c3c2)N=C(C2CCCCC2)c2ccccc21 [Example 99, (6-{2-[5-Cyclohexyl-1-(3,3-dimethyl-2-oxo-butyl)-2-oxo-1,2-dihydro-3H-1,3,4-benzotriazepin-3-yl]-acetylamino}-indazol-1-yl)-acetic acid]"
11,15.8,"CC(C)(C)C(=O)CN1C(=O)N(CC(=O)Nc2ccc3c(c2)N(CC(=O)O)CC3)N=C(C2CCCCC2)c2ccccc21 [Example 34, (6-{2-[5-Cyclohexyl-1-(3,3-dimethyl-2-oxo-butyl)-2-oxo-1,2-dihydro-3H-1,3,4-benzotriazepin-3-yl]-acetylamino}-2,3-dihydro-indol-1-yl)-acetic acid]"
